Laboratory results taken from patent US5624923A, “Tricyclic diazepine vasopressin antagonists and oxytocin antagonists” (priority 1995, dated 1997).

Legend:
[1] = target: T1, Rat Kidney Medullary V2 Receptors (Rattus norvegicus, UniProt Q00788); assay: Binding Assay to Rat Kidney Medullary V2 Receptors; conditions: for IC50: rat kidney medulla membranes, read-out: V2 IC50
T1 construct: Medullary tissues from rat kidneys are dissected out; from tissue; host or cells: rat kidney medulla membranes
Procedure, shortened: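 IC50 derived from competition curves; bound tritium counted by liquid scintillation after filtration. Rat medullary kidney membranes (Tris-HCl pH 7.4, BSA, PMSF) were incubated 120 min to equilibrium with radioligand and test compound (added in 50% DMSO). Nonspecific binding: 1.0 μM unlabeled ligand.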

Rat Hepatic V1 Receptors = target: T2, Rat Hepatic V1 Receptors (Rattus norvegicus, UniProt P30560); assay: Binding Assay to Rat Hepatic V1 Receptors; conditions: for IC50: rat liver membranes, read-out: V1 IC50
T2 construct: Rat liver plasma membranes expressing the vasopressin V1 receptor subtypes; from tissue; host or cells: rat liver plasma membranes

Vasopressin V1 = Vasopressin V1 Antagonist Activity in Conscious Rats (vasopressin vasopressor response); format: in vivo, rat; design: Average Change: unit not given here; conditions: SHR
Procedure, shortened: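 Conscious rats are restrained supine, and under local 2% procaine a PE 10/20 cannula is passed through the ventral caudal tail artery into the lower abdominal aorta. The caudal vein is cannulated for intravenous dosing. Blood pressure is recorded with a Statham P23Db transducer, and vasopressin injections are repeated after compound dosing. Percent antagonism is calculated against the pre-drug vasopressor response taken as 100%.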

Vasopressin V2 = Vasopressin V2 Antagonist Activity in Conscious Hydrated Rats; format: in vivo, rat; conditions: AVP 0.4 μg/kg i.p.
Procedure, shortened: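 Four-hour urine output, osmolality and electrolytes (Na+, K+, Cl−) recorded in water-loaded rats (30 mL/kg deionized water orally) given AVP i.p. at 0.4 μg/kg. Test compounds were given orally at 0.1–100 mg/kg 1 h before AVP; 2–4 rats per compound.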

[2] = 10 mg/kg i.v., VAS 0.01 i.u./kg, 30 min
[3] = 10 mg/kg i.v., VAS 0.01 i.u./kg, 60 min
[4] = 10 mg/kg i.v., VAS 0.01 i.u./kg, 90 min
[5] = 10 mg/kg i.v., VAS 0.01 i.u./kg, 120 min
[6] = 10 mg/kg i.v., VAS 0.01 i.u./kg, 180 min
[7] = 10 mg/kg i.v., VAS 0.01 i.u./kg, 240 min
[8] = 10 mg/kg i.v., VAS 0.01 i.u./kg, 300 min
[9] = 10 mg/kg i.v., VAS 0.02 i.u./kg, 30 min
[10] = 10 mg/kg i.v., VAS 0.02 i.u./kg, 60 min
[11] = 10 mg/kg i.v., VAS 0.02 i.u./kg, 90 min
[12] = 10 mg/kg i.v., VAS 0.02 i.u./kg, 120 min
[13] = 10 mg/kg i.v., VAS 0.02 i.u./kg, 180 min
[14] = 10 mg/kg i.v., VAS 0.02 i.u./kg, 240 min
[15] = 10 mg/kg i.v., VAS 0.02 i.u./kg, 300 min
[16] = 20 mg/kg i.v., VAS 0.01 i.u./kg, 60 min
[17] = 20 mg/kg i.v., VAS 0.01 i.u./kg, 90 min
[18] = 20 mg/kg i.v., VAS 0.01 i.u./kg, 120 min
[19] = 20 mg/kg i.v., VAS 0.01 i.u./kg, 180 min
[20] = 20 mg/kg i.v., VAS 0.01 i.u./kg, 240 min
[21] = 20 mg/kg i.v., VAS 0.01 i.u./kg, 300 min
[22] = 20 mg/kg i.v., VAS 0.02 i.u./kg, 60 min
[23] = 20 mg/kg i.v., VAS 0.02 i.u./kg, 90 min
[24] = 20 mg/kg i.v., VAS 0.02 i.u./kg, 120 min
[25] = 20 mg/kg i.v., VAS 0.02 i.u./kg, 180 min
[26] = 20 mg/kg i.v., VAS 0.02 i.u./kg, 240 min
[27] = 20 mg/kg i.v., VAS 0.02 i.u./kg, 300 min

T1 sequence (Q00788 whole entry): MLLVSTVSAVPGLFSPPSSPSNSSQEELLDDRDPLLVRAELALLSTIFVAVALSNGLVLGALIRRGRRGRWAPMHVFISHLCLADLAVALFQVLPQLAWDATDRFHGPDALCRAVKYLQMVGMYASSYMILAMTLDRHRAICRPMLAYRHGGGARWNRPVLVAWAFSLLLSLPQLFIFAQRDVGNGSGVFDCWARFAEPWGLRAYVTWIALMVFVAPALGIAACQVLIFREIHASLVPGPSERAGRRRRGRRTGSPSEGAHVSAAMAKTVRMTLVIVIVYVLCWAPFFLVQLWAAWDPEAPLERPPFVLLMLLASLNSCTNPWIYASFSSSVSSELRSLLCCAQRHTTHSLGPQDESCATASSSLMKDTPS
T2 sequence (P30560 whole entry): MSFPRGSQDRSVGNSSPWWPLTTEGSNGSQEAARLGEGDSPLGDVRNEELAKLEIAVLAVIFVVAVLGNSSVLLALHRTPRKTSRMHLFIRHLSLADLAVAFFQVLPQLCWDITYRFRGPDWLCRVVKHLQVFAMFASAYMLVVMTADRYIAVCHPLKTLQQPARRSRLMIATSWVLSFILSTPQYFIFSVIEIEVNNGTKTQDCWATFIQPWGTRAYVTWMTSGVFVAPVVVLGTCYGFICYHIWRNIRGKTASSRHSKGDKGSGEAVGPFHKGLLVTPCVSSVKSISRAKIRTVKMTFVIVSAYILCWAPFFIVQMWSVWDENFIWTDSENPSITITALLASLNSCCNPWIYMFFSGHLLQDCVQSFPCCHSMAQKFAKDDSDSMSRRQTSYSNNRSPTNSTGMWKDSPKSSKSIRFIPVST

SMILES: Cc1ccsc1C(=O)Nc1ccc(C(=O)N2Cc3cccn3Cc3ccccc32)cc1 [Example 5, N-[4-(5H-pyrrolo[2,1-c][1,4]benzodiazepin10(11H)-ylcarbonyl)phenyl]-3-methyl-2-thiophenecarboxamide]
- IC50 [1]: 25 nM
- IC50 (Rat Hepatic V1 Receptors): 15 nM
- % Inhibition (Vasopressin V1; [2]): 83%
- Average Change (Vasopressin V1; [2]): 5.5
- % Inhibition (Vasopressin V1; [3]): 76%
- Average Change (Vasopressin V1; [3]): 7.5
- % Inhibition (Vasopressin V1; [4]): 71%
- Average Change (Vasopressin V1; [4]): 9
- % Inhibition (Vasopressin V1; [5]): 59%
- Average Change (Vasopressin V1; [5]): 13
- % Inhibition (Vasopressin V1; [6]): 62%
- Average Change (Vasopressin V1; [6]): 12
- % Inhibition (Vasopressin V1; [7]): 46%
- Average Change (Vasopressin V1; [7]): 17
- % Inhibition (Vasopressin V1; [8]): 5%
- Average Change (Vasopressin V1; [8]): 30
- % Inhibition (Vasopressin V1; [9]): 72%
- Average Change (Vasopressin V1; [9]): 13.5
- % Inhibition (Vasopressin V1; [10]): 78%
- Average Change (Vasopressin V1; [10]): 10.5
- % Inhibition (Vasopressin V1; [11]): 83%
- Average Change (Vasopressin V1; [11]): 8
- % Inhibition (Vasopressin V1; [12]): 69%
- Average Change (Vasopressin V1; [12]): 15
- % Inhibition (Vasopressin V1; [13]): 60%
- Average Change (Vasopressin V1; [13]): 19
- % Inhibition (Vasopressin V1; [14]): 51%
- Average Change (Vasopressin V1; [14]): 23.5
- % Inhibition (Vasopressin V1; [15]): 18%
- Average Change (Vasopressin V1; [15]): 39.5
- Osmolality (Vasopressin V2; 10 mg/kg orally): 1079 mOsm/kg
- Urine Volume (Vasopressin V2; 10 mg/kg orally): 8.5 ml/4 hrs
- Osmolality (Vasopressin V2; 30 mg/kg orally): 955 mOsm/kg
- Urine Volume (Vasopressin V2; 30 mg/kg orally): 7.7 ml/4 hrs

SMILES: O=C(Nc1ccc(C(=O)N2Cc3cccn3Cc3ccccc32)cc1)c1sc2ccccc2c1Cl [Example 82, N-[4-(5H-Pyrrolo[2,1-c][1,4]benzodiazepin-10(11H)-ylcarbonyl)phenyl]-3-chlorobenzo[b]thiophene-2-carboxamide]
- inhibition at 10 µM ([1]; 10 μM, rat): 71%
- inhibition at 10 µM (Rat Hepatic V1 Receptors; 2 h, 10 μM, rat): 23%
- % Inhibition (Vasopressin V1; [2]): 24%
- Average Change (Vasopressin V1; [2]): 36
- % Inhibition (Vasopressin V1; [9]): -5%
- Average Change (Vasopressin V1; [9]): 54
- % Inhibition (Vasopressin V1; [16]): 67%
- Average Change (Vasopressin V1; [16]): 15.5
- % Inhibition (Vasopressin V1; [17]): 51%
- Average Change (Vasopressin V1; [17]): 23.5
- % Inhibition (Vasopressin V1; [18]): 65%
- Average Change (Vasopressin V1; [18]): 16.5
- % Inhibition (Vasopressin V1; [19]): 61%
- Average Change (Vasopressin V1; [19]): 18.5
- % Inhibition (Vasopressin V1; [20]): 39%
- Average Change (Vasopressin V1; [20]): 29
- % Inhibition (Vasopressin V1; [21]): 33%
- Average Change (Vasopressin V1; [21]): 32
- % Inhibition (Vasopressin V1; [22]): 28%
- Average Change (Vasopressin V1; [22]): 37
- % Inhibition (Vasopressin V1; [23]): 53%
- Average Change (Vasopressin V1; [23]): 24
- % Inhibition (Vasopressin V1; [24]): 25%
- Average Change (Vasopressin V1; [24]): 38.5
- % Inhibition (Vasopressin V1; [25]): 16%
- Average Change (Vasopressin V1; [25]): 43.5
- % Inhibition (Vasopressin V1; [26]): 18%
- Average Change (Vasopressin V1; [26]): 42
- % Inhibition (Vasopressin V1; [27]): -3%
- Average Change (Vasopressin V1; [27]): 53
- Osmolality (Vasopressin V2; 20 mg/kg orally): 1300 mOsm/kg
- Urine Volume (Vasopressin V2; 20 mg/kg orally): 4.3 ml/4 hrs

SMILES: O=C(Nc1ccc(C(=O)N2Cc3cccn3Cc3ccccc32)cc1)c1ccccc1F [Example 8, N-[4-(5H-pyrrolo[2,1-c][1,4]benzodiazepin10(11H)-ylcarbonyl)phenyl]-2-fluorobenzamide]
- IC50 [1]: 35 nM
- IC50 (Rat Hepatic V1 Receptors): 56 nM
- % Inhibition (Vasopressin V1; [2]): 61%
- Average Change (Vasopressin V1; [2]): 14.5
- % Inhibition (Vasopressin V1; [3]): 61%
- Average Change (Vasopressin V1; [3]): 14.5
- % Inhibition (Vasopressin V1; [4]): 73%
- Average Change (Vasopressin V1; [4]): 10
- % Inhibition (Vasopressin V1; [5]): 69%
- Average Change (Vasopressin V1; [5]): 11.5
- % Inhibition (Vasopressin V1; [6]): 62%
- Average Change (Vasopressin V1; [6]): 14
- % Inhibition (Vasopressin V1; [7]): 59%
- Average Change (Vasopressin V1; [7]): 15
- % Inhibition (Vasopressin V1; [8]): 51%
- Average Change (Vasopressin V1; [8]): 18
- % Inhibition (Vasopressin V1; [9]): 54%
- Average Change (Vasopressin V1; [9]): 23.5
- % Inhibition (Vasopressin V1; [10]): 58%
- Average Change (Vasopressin V1; [10]): 21.5
- % Inhibition (Vasopressin V1; [11]): 66%
- Average Change (Vasopressin V1; [11]): 17.5
- % Inhibition (Vasopressin V1; [12]): 70%
- Average Change (Vasopressin V1; [12]): 15.5
- % Inhibition (Vasopressin V1; [13]): 46%
- Average Change (Vasopressin V1; [13]): 28
- % Inhibition (Vasopressin V1; [14]): 44%
- Average Change (Vasopressin V1; [14]): 29
- % Inhibition (Vasopressin V1; [15]): 46%
- Average Change (Vasopressin V1; [15]): 28
- Osmolality (Vasopressin V2; 10 mg/kg orally): 1211 mOsm/kg
- Urine Volume (Vasopressin V2; 10 mg/kg orally): 3.4 ml/4 hrs
- Osmolality (Vasopressin V2; 30 mg/kg orally): 1010 mOsm/kg
- Urine Volume (Vasopressin V2; 30 mg/kg orally): 9.1 ml/4 hrs
